Data set [1] relates to HepG2. The experiment in a line: Hepatoprotective activity against APAP-induced cell injury in human HepG2 cells assessed as reduction in ALT level at 6.25 to 25 uM preincubated for 24 hrs followed by APAP addition and measured after 24 hrs. In kind it is functional, cell-based. The settings on record: dose 6.25-25 µM, time 48.0 hrs.
Data set [2] has as its system HepG2. The data set can be described thus: Hepatoprotective activity against APAP-induced cell injury in human HepG2 cells assessed as reduction in AST level at 6.25 to 25 uM preincubated for 24 hrs followed by APAP addition and measured after 24 hrs. The settings on record: dose 6.25-25 µM, time 48.0 hrs. In kind it is functional, cell-based.
The subject of data set [3] is HepG2. The data set can be described thus: Hepatoprotective activity against APAP-induced cell injury in human HepG2 cells assessed as increase in survival rate preincubated for 24 hrs followed by APAP addition and measured after 24 hrs by MTT assay. The data set is classed as functional, cell-based. The settings on record: dose 6.25-25 µM, time 48.0 hrs. (Formazan colour is commonly taken as a measure of viable cells.)

For data set [4], the system named is HepG2. The data set can be described thus: Cytotoxicity against human HepG2 cells assessed as reduction in cell viability at 100 uM incubated for 48 hrs by MTT assay. The data set is classed as toxicity, cell-based. The settings on record: hepg2, 48 h.
The test system of data set [5] is HepG2. The experiment in a line: Hepatoprotective activity against APAP-induced human HepG2 cell apoptosis assessed as late apoptotic cells at 25 uM incubated for 24 hrs in presence of APAP by Annexin V-FITC/PI staining based flow cytometry (reference value: 11.01%). The data set is classed as functional. (In flow cytometry, cells or beads pass a laser one at a time.)

The test system of data set [6] is HepG2. The experiment in a line: Hepatoprotective activity against APAP-induced cell injury in human HepG2 cells assessed as increase in HO-1 expression at 6.25 to 25 uM preincubated for 24 hrs followed by APAP addition and measured after 24 hrs by Western blot analysis. The data set is classed as functional, cell-based. The following applies: dose 6.25-25 µM, time 48.0 hrs. Background: In western blotting, separated proteins are transferred to a membrane and probed.

Data set [7] concerns HepG2. The data set can be described thus: Hepatoprotective activity in human HepG2 cells assessed as reduction in APAP-induced increased in ROS level at 25 uM measured after 24 hrs in presence of APAP by DCF staining based flow cytometry. The data set is classed as functional, cell-based.
Data set [8] concerns HepG2. The data set can be described thus: Hepatoprotective activity in human HepG2 cells assessed as restoration of APAP-induced inhibition of Bcl-2 expression preincubated for 24 hrs followed by APAP addition and measured after 24 hrs by Western blot analysis. In kind it is functional, cell-based. The settings on record: dose 6.25-25 µM, time 48.0 hrs.
Data set [9] relates to HepG2. The experiment in a line: Hepatoprotective activity against APAP-induced cell injury in human HepG2 cells assessed as increase in Nrf2 expression at 6.25 to 25 uM preincubated for 24 hrs followed by APAP addition and measured after 24 hrs by Western blot analysis. The following applies: dose 6.25-25 µM, time 48.0 hrs. The data set is classed as functional, cell-based.

The subject of data set [10] is HepG2. The data set can be described thus: Hepatoprotective activity against APAP-induced human HepG2 cell apoptosis assessed as necrotic cells at 25 uM incubated for 24 hrs in presence of APAP by Annexin V-FITC/PI staining based flow cytometry (reference value: 0.49%). The data set is classed as functional.
Data set [11] has as its system HepG2. The experiment in a line: Hepatoprotective activity against APAP-induced human HepG2 cell apoptosis assessed as viable cells at 25 uM incubated for 24 hrs in presence of APAP by Annexin V-FITC/PI staining based flow cytometry (Rvb=62.69%). In kind it is functional. The following applies: read-out: Activity.
In data set [12] the test system is HepG2. The experiment in a line: Hepatoprotective activity against APAP-induced cell injury in human HepG2 cells assessed as increase in GSH-Px activity at 6.25 to 25 uM preincubated for 24 hrs followed by APAP addition and measured after 24 hrs. The data set is classed as functional, cell-based. The following applies: dose 6.25-25 µM, time 48.0 hrs.
The test system of data set [13] is HepG2. The data set can be described thus: Hepatoprotective activity in human HepG2 cells assessed as inhibition of APAP-induced increase in Bax expression preincubated for 24 hrs followed by APAP addition and measured after 24 hrs by Western blot analysis. The data set is classed as functional, cell-based. The following applies: dose 6.25-25 µM, time 48.0 hrs.

Data set [14] relates to HepG2. The experiment in a line: Hepatoprotective activity against APAP-induced human HepG2 cell apoptosis assessed as early apoptotic cells at 25 uM incubated for 24 hrs in presence of APAP by Annexin V-FITC/PI staining based flow cytometry (reference value: 25.81%). The data set is classed as functional.
Data set [15] deals with HepG2. The data set can be described thus: Hepatoprotective activity against APAP-induced cell injury in human HepG2 cells assessed as increase in GPX4 expression at 6.25 to 25 uM preincubated for 24 hrs followed by APAP addition and measured after 24 hrs by Western blot analysis. The settings on record: dose 6.25-25 µM, time 48.0 hrs. The data set is classed as functional, cell-based.

In data set [16] the test system is HepG2. The experiment in a line: Hepatoprotective activity against APAP-induced cell injury in human HepG2 cells assessed as reduction in ALT level at 10 uM preincubated for 24 hrs followed by APAP addition and measured after 24 hrs. The settings on record: time 48.0 hrs. In kind it is functional, cell-based.
Data set [17] relates to HepG2. The data set can be described thus: Hepatoprotective activity against APAP-induced cell injury in human HepG2 cells assessed as reduction in AST level at 10 uM preincubated for 24 hrs followed by APAP addition and measured after 24 hrs. The following applies: time 48.0 hrs. In kind it is functional, cell-based.

The source made the active and inactive calls. No cut-off for these calls is given here.

Regarding `CCCCO[C@H]1OC[C@](O)(COC(=O)c2ccc(O)c(OC)c2)[C@H]1O`, the Activity result in data set [1] is “Active; Significant Effect Observed”; in data set [2] it was “Active; Significant Effect Observed”; in data set [3] it was “Dose-dependent-effect”; in data set [4], “Non-toxic”.
In the case of `COc1cc(O[C@@H]2O[C@H](COC(=O)c3ccc(O)c(OC)c3)[C@@H](O[C@@H]3O[C@H](CO)[C@@H](O)[C@H](O)[C@H]3O)[C@H](O)[C@H]2O)ccc1O`, the Activity in data set [5] was 9.43%; in [1], “Active; Significant Effect Observed”; in data set [8] it was “Dose-dependent-effect; Significant Effect Observed”; in data set [2], “Active; Significant Effect Observed”; in data set [10] it was 0.9%; in [3] it was “Dose-dependent-effect”. Also, the Activity result in [4] is on record as “Non-toxic”; in [14], 20.51%. Further, the result in data set [6], in data set [7], in data set [9], in data set [12] and in data set [15] was Active. Moreover, in data set [11], the viability at 25 µM stood at 69.2%. The inhibition entry in data set [13] is “Dose-dependent-effect; Significant Effect Observed”.
In the case of `COc1cc(C(=O)OC[C@H]2O[C@@H](Oc3cc(OC)c(OC)c(OC)c3)[C@H](O)[C@@H](O)[C@@H]2O)ccc1O`, the Activity entry was “Active; Significant Effect Observed” in data set [1], “Active; Significant Effect Observed” in data set [2], “Dose-dependent-effect” in data set [3] and “Non-toxic” in data set [4].
Regarding `COc1cc(CO)ccc1O[C@@H]1O[C@H](COC(=O)c2cc(OC)c(O)c(OC)c2)[C@@H](O[C@@H]2O[C@H](CO)[C@@H](O)[C@H](O)[C@H]2O)[C@H](O)[C@H]1O`, the Activity result in data set [1] is “Active; Significant Effect Observed”; in data set [2], “Active; Significant Effect Observed”; in data set [3] it was “Dose-dependent-effect”; in [4], “Non-toxic”.
`COc1cc(O[C@@H]2O[C@H](COC(=O)c3cc(OC)c(O)c(OC)c3)[C@@H](O[C@@H]3O[C@H](CO)[C@@H](O)[C@H](O)[C@H]3O)[C@H](O)[C@H]2O)ccc1O`: the Activity result in data set [1] was “Active; Significant Effect Observed”; in [2], “Active; Significant Effect Observed”; in [3], “Dose-dependent-effect”; in [4], “Non-toxic”.
For the compound `COc1cc([C@@H]2Oc3cc([C@H]4Oc5cc(O)cc(O)c5C(=O)[C@@H]4O)ccc3O[C@H]2CO)ccc1O`, the result in [16] and in data set [17] was Active.
On to `COc1cc(O[C@@H]2O[C@H](CO)[C@@H](O)[C@H](O)[C@H]2O[C@@H]2OC[C@](O)(COC(=O)c3ccc(O)c(OC)c3)[C@H]2O)ccc1O`, for which the Activity result in data set [1] was “Active; Significant Effect Observed”; in [2] it was “Active; Significant Effect Observed”; in data set [3], “Dose-dependent-effect”; in data set [4], “Non-toxic”.
Regarding `CCCCO[C@@H]1OC[C@](O)(COC(=O)c2ccc(O)c(OC)c2)[C@H]1O`, the Activity entry in [1] is “Active; Significant Effect Observed”; in data set [2], “Active; Significant Effect Observed”; in data set [3] it was “Dose-dependent-effect”; in [4], “Non-toxic”.
